Patent US8334286B2, “Substituted pyrrolo[1,2-A] pyrazines, compositions containing these, processes of making these, and uses thereof” (Neurotune AG, priority 2008, dated 2012)

Experiments:
MIA-induced hyperalgesia [1] = test: MIA-induced hyperalgesia in the rat (incapacitance test), osteoarthritic pain; assay type: in vivo; conditions: MIA-treated rats, grams of the right paw, mean ± S.E.M.
Procedure: In all methods, paw mechanical sensitivity was determined using either the paw pressure test or the incapacitance test. […] Osteoarthritis was induced by a single administration of 2 mg (in a volume of 25 μl) of monosodium iodoacetate (MIA) into the left knee joint of anaesthetized rats (male adult Sprague Dawley rats, 150-200 g, supplier Harlan) (Fernihough J. 2004, Pain 112:83-93). This treatment induces the progressive degeneration of the joint and the development of hyperalgesia, mimicking at the histological and behavioral levels what observed in humans. Pharmacological test was performed 7 days after treatment.

MIA-induced hyperalgesia [2] = test: MIA-induced hyperalgesia in the rat (paw-pressure test), osteoarthritic pain; assay type: in vivo; conditions: MIA-treated rats, mean ± S.E.M.; for Mechanical threshold (g), After Treatment 15 min / Mechanical threshold (g), After Treatment 30 min / Mechanical threshold (g), After Treatment 45 min: 3 mg/kg i.v.; for Mechanical threshold (g), After Treatment 15 min: 15 min after treatment; for Mechanical threshold (g), After Treatment 30 min: 30 min after treatment; for Mechanical threshold (g), After Treatment 45 min: 45 min after treatment; for Mechanical threshold (g), Before Treatment basal: group 3 mg/kg i.v.
Procedure: In all methods, paw mechanical sensitivity was determined using either the paw pressure test or the incapacitance test. The paw pressure test utilizes a Randall & Selitto apparatus, exerting a force that increases at constant rate (32 g/s). The stimulus at which rats withdrawn the paw was evaluated before and at different times after treatment. Results represent the mean of mechanical thresholds expressed as grams. To avoid any possible damage to the animal paw the maximum applied force was fixed at 240 g. Osteoarthritis was induced by a single administration of 2 mg (in a volume of 25 μl) of monosodium iodoacetate (MIA) into the left knee joint of anaesthetized rats (male adult Sprague Dawley rats, 150-200 g, supplier Harlan) (Fernihough J. 2004, Pain 112:83-93). This treatment induces the progressive degeneration of the joint and the development of hyperalgesia, mimicking at the histological and behavioral levels what observed in humans. Pharmacological test was performed 7 days after treatment.

[3] = tested on: paclitaxel-induced hyperalgesia; test: Paclitaxel-induced hyperalgesia in the rat (paw-pressure test); assay type: in vivo; conditions: PCT-treated rats, mean ± S.E.M.; for Mechanical threshold (g), After Treatment 15 min: 15 min after treatment; for Mechanical threshold (g), After Treatment 30 min: 30 min after treatment; for Mechanical threshold (g), After Treatment 45 min: 45 min after treatment
Procedure: In all methods, paw mechanical sensitivity was determined using either the paw pressure test or the incapacitance test. The paw pressure test utilizes a Randall & Selitto apparatus, exerting a force that increases at constant rate (32 g/s). The stimulus at which rats withdrawn the paw was evaluated before and at different times after treatment. Results represent the mean of mechanical thresholds expressed as grams. To avoid any possible damage to the animal paw the maximum applied force was fixed at 240 g. Peripheral neuropathy is induced by repeated administration of vincristine, paclitaxel or oxaliplatin to adult male Sprague-Dawley rats (150-200 g, supplier Harlan). The following protocols were used respectively: • Vincristine: the drug was injected by intravenous route at the dose of 150 μg/kg. The treatment was performed every 2 days, for 5 times, until a cumulative dose of 750 μg/kg was reached. Paw pressure test was performed 4 days after the last injection (Marchand F. et al. 2003, Brain Res. 980:117-120). • Paclitaxel: paclitaxel (PCT) neuropathy was induced by intraperitoneal administration of 0.5 mg/kg once a day, on days 1, 3, 5 and 8. Cumulative paclitaxel dose was 2 mg/kg. The pharmacological test was performed 14-18 days after the last paclitaxel injection (Polomano R. C. et al. 2001, Pain 94:293-304). • Oxaliplatin: 2.4 mg/kg were injected by intraperitoneal route for 5 consecutive days followed by 2 days suspension (one cicle). A total of 3 cycles was performed, reaching a cumulative dose of 36 mg/kg (Cavaletti G. 2001, Eur. J. Cancer 37:2457-2463). The test was performed 48 h after the last oxaliplatin injection. 2. Osteoarthritic Pain

[4] = 3 mg/kg i.v., 15 min after treatment
[5] = 3 mg/kg i.v., 30 min after treatment
[6] = 3 mg/kg i.v., 45 min after treatment
[7] = before treatment (basal), group 3 mg/kg i.v.

Row | Structure (SMILES) | melting point [°C] | Mechanical threshold (g), After Treatment 15 min ([3]; 3 mg/kg i.v.) [g] | Mechanical threshold (g), After Treatment 30 min ([3]; 3 mg/kg i.v.) [g] | Mechanical threshold (g), After Treatment 45 min ([3]; 3 mg/kg i.v.) [g] | further results
1 | O=C1CC[C@H]2CN(S(=O)(=O)c3ccccc3F)CCN12 [Example 1, (S)-(−)2-(2-fluorophenylsulfonyl)hexahydro pyrrolo[1,2-a]pyrazin-6(7H)-one] | 142 to 144 |  |  |  | 
2 | O=C1CC[C@H]2CN(S(=O)(=O)c3cccc(F)c3)CCN12 [Example 2, (S)-(−)2-(3-fluorophenylsulfonyl)hexahydro pyrrolo[1,2-a]pyrazin-6(7H)-one] | 177 to 179 |  |  |  | 
3 | O=C1CC[C@@H]2CN(S(=O)(=O)c3ccccc3F)CCN12 [Example 3, (R)-(+)2-(2-fluorophenylsulfonyl)hexahydro pyrrolo[1,2-a]pyrazin-6(7H)-one] | 136 to 137 | 45.6 ± 3.9 | 53.3 ± 2.7 | 46.2 ± 3.3 | Weight borne on right hind paw (MIA-induced hyperalgesia [1]; [4]): 106.9 ± 7.3 g; Weight borne on right hind paw (MIA-induced hyperalgesia [1]; [5]): 112.1 ± 8.5 g; Weight borne on right hind paw (MIA-induced hyperalgesia [1]; [6]): 81.8 ± 6.6 g; Weight borne on right hind paw (MIA-induced hyperalgesia [1]; [7]): 41.8 ± 6.0 g; Mechanical threshold (g), After Treatment 15 min (MIA-induced hyperalgesia [2]): 61.3 ± 3.0 g; Mechanical threshold (g), After Treatment 30 min (MIA-induced hyperalgesia [2]): 58.1 ± 3.7 g; Mechanical threshold (g), After Treatment 45 min (MIA-induced hyperalgesia [2]): 49.2 ± 4.1 g; Mechanical threshold (g), Before Treatment basal (MIA-induced hyperalgesia [2]): 21.9 ± 1.9 g
4 | O=C1CC[C@@H]2CN(S(=O)(=O)c3cccc(F)c3)CCN12 [Example 4, (R)-(+)2-(3-fluorophenylsulfonyl)hexahydro pyrrolo[1,2-a]pyrazin-6(7H)-one] | 179 to 180 | 51.1 ± 2.4 | 55.8 ± 2.4 | 47.3 ± 2.9 | Weight borne on right hind paw (MIA-induced hyperalgesia [1]; [4]): 90.1 ± 8.2 g; Weight borne on right hind paw (MIA-induced hyperalgesia [1]; [5]): 96.2 ± 7.5 g; Weight borne on right hind paw (MIA-induced hyperalgesia [1]; [6]): 72.5 ± 7.2 g; Weight borne on right hind paw (MIA-induced hyperalgesia [1]; [7]): 41.4 ± 5.8 g; Mechanical threshold (g), After Treatment 15 min (MIA-induced hyperalgesia [2]): 41.4 ± 3.1 g; Mechanical threshold (g), After Treatment 30 min (MIA-induced hyperalgesia [2]): 53.0 ± 3.5 g; Mechanical threshold (g), After Treatment 45 min (MIA-induced hyperalgesia [2]): 42.6 ± 3.2 g; Mechanical threshold (g), Before Treatment basal (MIA-induced hyperalgesia [2]): 23.1 ± 2.5 g
5 | O=C1CC[C@@H]2CN(S(=O)(=O)c3ccc(F)c(F)c3)CCN12 [Example 5, (R)-(+)-2-(3,4-difluorophenylsulfonyl)hexahydro pyrrolo[1,2-a]pyrazin-6(7H)-one] | 208 to 209 |  |  |  | 
6 | Cc1ccccc1S(=O)(=O)N1CCN2C(=O)CC[C@@H]2C1 [Example 6, (R)-(+)-2-(o-tolylsulfonyl)hexahydro pyrrolo[1,2-a]pyrazin-6(7H)-one] | 68 to 70 | 49.4 ± 3.0 | 48.8 ± 2.8 | 40.7 ± 2.2 | 
7 | Cc1cccc(S(=O)(=O)N2CCN3C(=O)CC[C@@H]3C2)c1 [Example 7, (R)-(+)-2-(m-tolylsulfonyl)hexahydro pyrrolo[1,2-a]pyrazin-6(7H)-one] | 133 to 134 | 38.7 ± 2.2 | 47.6 ± 2.4 | 36.4 ± 2.5 | 
8 | O=C1CC[C@@H]2CN(S(=O)(=O)c3cccc(C(F)(F)F)c3)CCN12 [Example 9, (R)-(+)-2-(3-(tifluoromethyl)phenylsulfonyl) hexahydropyrrolo [1,2-a]pyrazin-6(7H)-one] | 172 to 174 | 41.6 ± 3.6 | 44.5 ± 2.8 | 42.9 ± 4.3 | 
9 | O=C1CC[C@@H]2CN(S(=O)(=O)c3ccc(C(F)(F)F)cc3)CCN12 [Example 10, (R)-(+)-2-(4-(trifluoromethyl)phenylsulfonyl) hexahydropyrrolo [1,2-a]pyrazin-6(7H)-one] | 226 to 227 |  |  |  | 
10 | N#Cc1ccccc1S(=O)(=O)N1CCN2C(=O)CC[C@@H]2C1 [Example 11, (R)-2-(6-oxohexahydropyrrolo[1,2-a]pyrazin-2(1H)-ylsulfonyl) benzonitrile] | 198 to 199 | 45.3 ± 1.6 | 50.7 ± 2.3 | 48.4 ± 2.7 | 
11 | N#Cc1cccc(S(=O)(=O)N2CCN3C(=O)CC[C@@H]3C2)c1 [Example 12, (R)-3-(6-oxohexahydropyrrolo[1,2-a]pyrazin-2(1H)-ylsulfonyl) benzonitrile] | 180 to 181 | 39.8 ± 3.7 | 41.5 ± 3.8 | 39.2 ± 4.4 | 
12 | N#Cc1ccc(S(=O)(=O)N2CCN3C(=O)CC[C@@H]3C2)cc1 [Example 13, (R)-(+)-4-(6-oxohexahydropyrrolo[1,2-a]pyrazin-2(1H)-ylsulfonyl) benzonitrile] | 242 to 243 |  |  |  | Mechanical threshold (g), After Treatment 15 min ([3]; 1 mg/kg i.v.): 35.6 ± 3.1 g; Mechanical threshold (g), After Treatment 30 min ([3]; 1 mg/kg i.v.): 39.7 ± 2.4 g; Mechanical threshold (g), After Treatment 45 min ([3]; 1 mg/kg i.v.): 34.8 ± 3.3 g
13 | COc1cccc(S(=O)(=O)N2CCN3C(=O)CC[C@@H]3C2)c1 [Example 15, (R)-2-(3-methoxyphenylsulfonyl)hexahydro pyrrolo[1,2-a]pyrazin-6(7H)-one] | 144 to 145 |  |  |  | 
14 | O=C1CC[C@@H]2CN(S(=O)(=O)c3cccnc3)CCN12 [Example 16, (R)-2-(pyridin-3-ylsulfonyl)hexahydro pyrrolo[1,2-a]pyrazin-6(7H)-one] | 165 to 166 |  |  |  | 
15 | O=C(c1ccccc1F)N1CCN2C(=O)CC[C@H]2C1 [Example 18, (S)-2-(2-fluorobenzoyl) hexahydropyrrolo [1,2-a]pyrazin-6(7H)-one] | 123 to 124 |  |  |  | 
16 | O=C(c1cccc(F)c1)N1CCN2C(=O)CC[C@H]2C1 [Example 19, (S)-2-(3-fluorobenzoyl) hexahydropyrrolo [1,2-a]pyrazin-6(7H)-one] | 161 to 162 |  |  |  | 
17 | O=C(c1ccccc1F)N1CCN2C(=O)CC[C@@H]2C1 [Example 20, (R)-2-(2-fluorobenzoyl) hexahydropyrrolo [1,2-a]pyrazin-6(7H)-one] | 123 to 124 | 41.4 ± 2.3 | 45.7 ± 3.5 | 35.8 ± 3.0 | 
18 | O=C(c1cccc(F)c1)N1CCN2C(=O)CC[C@@H]2C1 [Example 21, (R)-2-(3-fluorobenzoyl) hexahydropyrrolo [1,2-a]pyrazin-6(7H)-one] | 161 to 162 | 40.9 ± 3.5 | 46.2 ± 4.3 | 37.6 ± 4.3 | 
19 | Cc1ccc(N2CCN3C(=O)CCC3C2=O)cc1 (centres unmarked) [Example 24, 2-p-Tolyl-tetrahydro-pyrrolo[1,2-a]pyrazine-1,6-dione] | 115 to 117 | 42.2 ± 2.6 | 43.4 ± 4.1 | 36.5 ± 4.2 | 
